Experimental data: paper PMC6738068 (British Journal of Cancer, 2019)
Entries after “also recorded” stand apart in the source; their conditions may differ. Where two headings read alike, the source gives them in different places.

Legend:
PLK1 = test system: PLK1; parameters: method as in printed; conditions: preclinical, ref not given; cited from earlier work
FGFR2 = test system: FGFR2; parameters: method as in printed; conditions: preclinical, ref not given; cited from earlier work
OATP1B3 = test system: OATP1B3; parameters: method as in printed; conditions: preclinical testing, ref not given; cited from earlier work
CYP3A4 = test system: CYP3A4; parameters: method as in printed; conditions: preclinical testing, ref not given; cited from earlier work
dogs = test system: dogs; parameters: method as in printed; conditions: toxicology studies, ref not given; cited from earlier work
BCRP = test system: BCRP; parameters: method as in printed; conditions: preclinical testing, ref not given; cited from earlier work
PLK2 = test system: PLK2; parameters: method as in printed; conditions: preclinical, ref not given; cited from earlier work
Tie2 = test system: Tie2; parameters: method as in printed; conditions: preclinical, ref not given; cited from earlier work
[1] = test system: cytochrome P450 (CYP) enzyme 1A2; parameters: method as in printed; conditions: preclinical testing, ref not given; cited from earlier work
Abl [T315I] = test system: Abl [T315I]; parameters: method as in printed; conditions: preclinical, ref not given; cited from earlier work
Bmx = test system: Bmx; parameters: method as in printed; conditions: preclinical, ref not given; cited from earlier work
OCT1 = test system: OCT1; parameters: method as in printed; conditions: preclinical testing, ref not given; cited from earlier work
[2] = test system: patients with advanced solid tumours
Description: A standard 3+3 dose-escalation scheme was used to identify the maximally tolerated dose (MTD) and RP2D.
Patients without evidence of high-grade neutropenia during this run-in period resumed daily dosing in standard 28-day cycles.
Select haematologic DLT included febrile neutropenia grade ≥3 and/or neutropenia grade ≥3 associated with infection or asymptomatic neutropenia grade ≥3 that persisted for >7 days. Use of haematopoietic growth factors (e.g. G-CSF, erythropoietin) in Cycle 1 was not permitted unless a DLT occurred.
The RP2D was based on the MTD established during dose escalation together with a comprehensive review of toxicities, PKs, and efficacy outcomes.
Dose escalations occurred in 100% increments for individual dosing cohorts up to 32 mg/day. Subsequent dose escalations continued in increments not exceeding 50%, depending on toxicities experienced, and with the approval of local Investigators and the external Medical Monitor.
Hematologic DLTs were defined as drug-related anemia grade ≥3; febrile neutropenia grade ≥3, and/or neutropenia grade ≥3 associated with infection; asymptomatic neutropenia grade ≥3 that persisted for >7 days; asymptomatic thrombocytopenia grade ≥3 that persisted for >7 days following treatment interruption; grade 3 thrombocytopenia associated with bleeding; or grade 4 thrombocytopenia.
Dose escalation decisions were made following the completion of Cycle 1 for all patients enrolled in a given dose level, taking into consideration adverse events (AE) and pharmacokinetic results.

[3] = oral daily 72 mg (n = 6; one patient removed, not DLT evaluable)

Structure (SMILES): COc1ccc2c(c1)[C@]1(C[C@H]1c1ccc3c(/C=C/c4ccc(CN5C[C@@H](C)O[C@@H](C)C5)cc4)n[nH]c3c1)C(=O)N2 [CFI-400945]
- IC50 (PLK1): > 50000 nM
- IC50 (FGFR2): < 100 nM
- inhibition of OATP1B3 (OATP1B3): inhibitor
- time-dependent inhibition of CYP3A4 (CYP3A4): time-dependent inhibitor
- primary toxicities (dogs): haematopoietic effects (myeloid suppression, bone marrow hypocellularity)
- inhibition of BCRP (BCRP): inhibitor
- IC50 (PLK2): > 50000 nM
- IC50 (Tie2): < 100 nM
- induction of CYP1A2 [1]: inducer
- IC50 (Abl [T315I]): < 100 nM
- IC50 (Bmx): < 100 nM
- inhibition of OCT1 (OCT1): inhibitor
- DLT events ([2]; 64 mg dose escalation, 6 patients): no DLT events
- patients with a DLT event ([2]; 64 mg dose level, escalation plus expansion): 1/15
- DLT event in dose expansion ([2]; 64 mg expansion, Cycle 1 Day 15): One patient experienced grade 4 febrile neutropenia
- tolerability ([2]; 64 mg, continuous daily dosing): well tolerated; also recorded: tolerable
- DLT events ([2]; 72 mg (7 total), Cycle 1): Two patients experienced DLT events
- tolerability ([2]; 96 mg daily): intolerable
- DLT events ([2]; 96 mg, Cycle 1): one DLT (grade 3 febrile neutropenia)
- Total number of patients with DLT, all dosages ([2]; 3-96 mg (n = 48)): 4
- DLT description, grade 3 ([2]; all dose levels (n = 48)): Neutropenia, febrile neutropenia
- DLT description, grade 4 ([2]; all dose levels (n = 48)): Febrile neutropenia, lipase elevated
- recommended phase 2 dose (RP2D) ([2]; continuous daily oral dosing): 64 mg
- principal DLT ([2]; continuous dosing schedule): Neutropenia
- Total number of patients with DLT at each dosage ([2]; oral daily 3 mg (n = 3)): 0
- patients with DLT, grade 1 ([2]; oral daily 3 mg (n = 3)): 0
- patients with DLT, grade 2 ([2]; oral daily 3 mg (n = 3)): 0
- patients with DLT, grade 3, number (%) ([2]; oral daily 3 mg (n = 3)): 0
- patients with DLT, grade 4, number (%) ([2]; oral daily 3 mg (n = 3)): 0
- patients with DLT, grade 5 ([2]; oral daily 3 mg (n = 3)): 0
- Total number of patients with DLT at each dosage ([2]; oral daily 6 mg (n = 3)): 0
- patients with DLT, grade 1 ([2]; oral daily 6 mg (n = 3)): 0
- patients with DLT, grade 2 ([2]; oral daily 6 mg (n = 3)): 0
- patients with DLT, grade 3, number (%) ([2]; oral daily 6 mg (n = 3)): 0
- patients with DLT, grade 4, number (%) ([2]; oral daily 6 mg (n = 3)): 0
- patients with DLT, grade 5 ([2]; oral daily 6 mg (n = 3)): 0
- Total number of patients with DLT at each dosage ([2]; oral daily 11 mg (n = 3)): 0
- patients with DLT, grade 1 ([2]; oral daily 11 mg (n = 3)): 0
- patients with DLT, grade 2 ([2]; oral daily 11 mg (n = 3)): 0
- patients with DLT, grade 3, number (%) ([2]; oral daily 11 mg (n = 3)): 0
- patients with DLT, grade 4, number (%) ([2]; oral daily 11 mg (n = 3)): 0
- patients with DLT, grade 5 ([2]; oral daily 11 mg (n = 3)): 0
- Total number of patients with DLT at each dosage ([2]; oral daily 16 mg (n = 3)): 0
- patients with DLT, grade 1 ([2]; oral daily 16 mg (n = 3)): 0
- patients with DLT, grade 2 ([2]; oral daily 16 mg (n = 3)): 0
- patients with DLT, grade 3, number (%) ([2]; oral daily 16 mg (n = 3)): 0
- patients with DLT, grade 4, number (%) ([2]; oral daily 16 mg (n = 3)): 0
- patients with DLT, grade 5 ([2]; oral daily 16 mg (n = 3)): 0
- Total number of patients with DLT at each dosage ([2]; oral daily 24 mg (n = 3)): 0
- patients with DLT, grade 1 ([2]; oral daily 24 mg (n = 3)): 0
- patients with DLT, grade 2 ([2]; oral daily 24 mg (n = 3)): 0
- patients with DLT, grade 3, number (%) ([2]; oral daily 24 mg (n = 3)): 0
- patients with DLT, grade 4, number (%) ([2]; oral daily 24 mg (n = 3)): 0
- patients with DLT, grade 5 ([2]; oral daily 24 mg (n = 3)): 0
- Total number of patients with DLT at each dosage ([2]; oral daily 32 mg (n = 3)): 0
- patients with DLT, grade 1 ([2]; oral daily 32 mg (n = 3)): 0
- patients with DLT, grade 2 ([2]; oral daily 32 mg (n = 3)): 0
- patients with DLT, grade 3, number (%) ([2]; oral daily 32 mg (n = 3)): 0
- patients with DLT, grade 4, number (%) ([2]; oral daily 32 mg (n = 3)): 0
- patients with DLT, grade 5 ([2]; oral daily 32 mg (n = 3)): 0
- Total number of patients with DLT at each dosage ([2]; oral daily 48 mg (n = 3)): 0
- patients with DLT, grade 1 ([2]; oral daily 48 mg (n = 3)): 0
- patients with DLT, grade 2 ([2]; oral daily 48 mg (n = 3)): 0
- patients with DLT, grade 3, number (%) ([2]; oral daily 48 mg (n = 3)): 0
- patients with DLT, grade 4, number (%) ([2]; oral daily 48 mg (n = 3)): 0
- patients with DLT, grade 5 ([2]; oral daily 48 mg (n = 3)): 0
- Total number of patients with DLT at each dosage ([2]; oral daily 64 mg (n = 15)): 1
- patients with DLT, grade 1 ([2]; oral daily 64 mg (n = 15)): 0
- patients with DLT, grade 2 ([2]; oral daily 64 mg (n = 15)): 0
- patients with DLT, grade 3, number (%) ([2]; oral daily 64 mg (n = 15)): 0
- patients with DLT, grade 4, number (%) ([2]; oral daily 64 mg (n = 15)): 1 (6.7)
- patients with DLT, grade 5 ([2]; oral daily 64 mg (n = 15)): 0
- Total number of patients with DLT at each dosage [2, 3]: 2
- patients with DLT, grade 1 [2, 3]: 0
- patients with DLT, grade 2 [2, 3]: 0
- patients with DLT, grade 3, number (%) [2, 3]: 1 (16.7)
- patients with DLT, grade 4, number (%) [2, 3]: 1 (16.7)
- patients with DLT, grade 5 [2, 3]: 0
- Total number of patients with DLT at each dosage ([2]; oral daily 96 mg (n = 6)): 1
- patients with DLT, grade 1 ([2]; oral daily 96 mg (n = 6)): 0
- patients with DLT, grade 2 ([2]; oral daily 96 mg (n = 6)): 0
- patients with DLT, grade 3, number (%) ([2]; oral daily 96 mg (n = 6)): 1 (16.7)
- patients with DLT, grade 4, number (%) ([2]; oral daily 96 mg (n = 6)): 0
- patients with DLT, grade 5 ([2]; oral daily 96 mg (n = 6)): 0
